Measured values reported in ChEMBL document CHEMBL5291721, “A preclinical secondary pharmacology resource illuminates target-adverse drug reaction associations of marketed drugs” (Nat Commun, 2023).

Key:
Histamine H2 receptor = Histamine H2 receptor (Homo sapiens, UniProt P25021); assay type: functional, cell-based
[1] = molecular target: T1, Gamma-aminobutyric acid receptor subunit alpha-1 (Rattus norvegicus, UniProt P62813); assay type: functional
[2] = molecular target: Beta-2 adrenergic receptor (Homo sapiens, UniProt P07550)
[3] = molecular target: Beta-1 adrenergic receptor (Homo sapiens, UniProt P08588); assay type: functional
[4] = molecular target: Voltage-gated inwardly rectifying potassium channel KCNH2 (Homo sapiens, UniProt Q12809); assay type: functional
[5] = molecular target: 3',5'-cyclic-AMP phosphodiesterase 4D (Homo sapiens, UniProt Q08499); assay type: functional
[6] = molecular target: T1, Gamma-aminobutyric acid receptor subunit alpha-1
[7] = molecular target: T2, Cholecystokinin receptor type A (Homo sapiens, UniProt P32238)
T2 sequence (P32238 whole entry): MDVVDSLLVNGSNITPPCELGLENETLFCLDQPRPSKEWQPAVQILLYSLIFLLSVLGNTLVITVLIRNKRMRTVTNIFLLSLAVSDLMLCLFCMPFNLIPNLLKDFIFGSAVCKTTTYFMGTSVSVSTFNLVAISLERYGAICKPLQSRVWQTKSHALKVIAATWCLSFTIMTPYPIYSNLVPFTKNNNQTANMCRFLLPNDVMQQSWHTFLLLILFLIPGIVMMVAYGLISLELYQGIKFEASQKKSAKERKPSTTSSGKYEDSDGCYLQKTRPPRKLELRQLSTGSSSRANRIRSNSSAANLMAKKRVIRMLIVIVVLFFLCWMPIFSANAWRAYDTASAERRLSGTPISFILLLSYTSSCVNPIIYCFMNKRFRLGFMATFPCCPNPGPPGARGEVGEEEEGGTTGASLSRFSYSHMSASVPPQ

[8] = molecular target: Sodium-dependent dopamine transporter (Homo sapiens, UniProt Q01959)
[9] = molecular target: T3, Amine oxidase [flavin-containing] A (Homo sapiens, UniProt P21397); assay type: functional
T3 sequence (P21397 whole entry): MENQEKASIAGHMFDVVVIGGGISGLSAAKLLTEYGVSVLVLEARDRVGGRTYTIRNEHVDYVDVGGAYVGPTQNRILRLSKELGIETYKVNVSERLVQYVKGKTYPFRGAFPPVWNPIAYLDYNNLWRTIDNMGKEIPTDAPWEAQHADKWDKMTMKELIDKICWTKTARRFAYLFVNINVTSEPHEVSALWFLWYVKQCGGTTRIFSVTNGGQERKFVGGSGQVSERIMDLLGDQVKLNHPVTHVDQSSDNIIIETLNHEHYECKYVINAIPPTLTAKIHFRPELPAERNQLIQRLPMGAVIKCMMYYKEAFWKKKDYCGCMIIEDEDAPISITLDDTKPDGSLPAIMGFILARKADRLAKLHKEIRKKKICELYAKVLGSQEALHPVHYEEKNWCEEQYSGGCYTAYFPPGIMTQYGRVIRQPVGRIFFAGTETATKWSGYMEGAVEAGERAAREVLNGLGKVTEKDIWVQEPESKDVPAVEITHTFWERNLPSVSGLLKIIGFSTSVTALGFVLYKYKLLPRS

Adenosine receptor A1 = molecular target: T4, Adenosine receptor A1 (Homo sapiens, UniProt P30542)
T4 sequence (P30542 whole entry): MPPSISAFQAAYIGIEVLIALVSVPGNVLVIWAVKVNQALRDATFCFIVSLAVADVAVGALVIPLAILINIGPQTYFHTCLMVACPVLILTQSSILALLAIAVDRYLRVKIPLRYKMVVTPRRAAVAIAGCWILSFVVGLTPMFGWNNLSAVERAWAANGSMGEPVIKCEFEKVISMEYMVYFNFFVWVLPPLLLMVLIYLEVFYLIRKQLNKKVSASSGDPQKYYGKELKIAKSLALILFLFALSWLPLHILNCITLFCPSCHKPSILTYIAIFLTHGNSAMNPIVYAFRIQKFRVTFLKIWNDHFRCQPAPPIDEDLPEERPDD

Vasopressin V1a receptor = Vasopressin V1a receptor (Homo sapiens, UniProt P37288)
Histamine H3 receptor = Histamine H3 receptor (Homo sapiens, UniProt Q9Y5N1)
[10] = molecular target: T5, 5-hydroxytryptamine receptor 3A (Homo sapiens, UniProt P46098); assay type: functional
T5 sequence (P46098 whole entry): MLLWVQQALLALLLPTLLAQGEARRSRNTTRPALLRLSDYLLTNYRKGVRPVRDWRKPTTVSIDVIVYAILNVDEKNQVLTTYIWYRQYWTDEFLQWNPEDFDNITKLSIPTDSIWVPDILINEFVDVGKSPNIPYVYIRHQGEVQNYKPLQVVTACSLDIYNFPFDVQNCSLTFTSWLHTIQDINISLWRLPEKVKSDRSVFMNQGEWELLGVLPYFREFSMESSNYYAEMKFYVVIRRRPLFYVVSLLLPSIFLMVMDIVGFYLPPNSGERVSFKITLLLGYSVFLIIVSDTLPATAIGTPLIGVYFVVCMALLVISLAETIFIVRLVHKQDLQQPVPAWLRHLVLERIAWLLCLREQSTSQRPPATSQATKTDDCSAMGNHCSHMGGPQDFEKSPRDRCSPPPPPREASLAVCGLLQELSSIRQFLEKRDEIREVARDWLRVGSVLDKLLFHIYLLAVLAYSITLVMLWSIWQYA
Note: assay procedure not described here.

Sequence of Histamine H2 receptor (P25021 whole entry): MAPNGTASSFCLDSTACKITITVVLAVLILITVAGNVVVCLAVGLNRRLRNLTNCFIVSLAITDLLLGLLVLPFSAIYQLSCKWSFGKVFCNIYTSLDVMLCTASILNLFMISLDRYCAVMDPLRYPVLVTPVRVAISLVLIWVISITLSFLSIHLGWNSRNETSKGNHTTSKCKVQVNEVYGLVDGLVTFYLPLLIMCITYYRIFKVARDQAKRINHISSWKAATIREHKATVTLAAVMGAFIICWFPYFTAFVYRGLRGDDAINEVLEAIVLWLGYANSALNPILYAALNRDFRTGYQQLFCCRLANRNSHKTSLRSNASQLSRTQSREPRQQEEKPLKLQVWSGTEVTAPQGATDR
Sequence of 3',5'-cyclic-AMP phosphodiesterase 4D (Q08499 whole entry): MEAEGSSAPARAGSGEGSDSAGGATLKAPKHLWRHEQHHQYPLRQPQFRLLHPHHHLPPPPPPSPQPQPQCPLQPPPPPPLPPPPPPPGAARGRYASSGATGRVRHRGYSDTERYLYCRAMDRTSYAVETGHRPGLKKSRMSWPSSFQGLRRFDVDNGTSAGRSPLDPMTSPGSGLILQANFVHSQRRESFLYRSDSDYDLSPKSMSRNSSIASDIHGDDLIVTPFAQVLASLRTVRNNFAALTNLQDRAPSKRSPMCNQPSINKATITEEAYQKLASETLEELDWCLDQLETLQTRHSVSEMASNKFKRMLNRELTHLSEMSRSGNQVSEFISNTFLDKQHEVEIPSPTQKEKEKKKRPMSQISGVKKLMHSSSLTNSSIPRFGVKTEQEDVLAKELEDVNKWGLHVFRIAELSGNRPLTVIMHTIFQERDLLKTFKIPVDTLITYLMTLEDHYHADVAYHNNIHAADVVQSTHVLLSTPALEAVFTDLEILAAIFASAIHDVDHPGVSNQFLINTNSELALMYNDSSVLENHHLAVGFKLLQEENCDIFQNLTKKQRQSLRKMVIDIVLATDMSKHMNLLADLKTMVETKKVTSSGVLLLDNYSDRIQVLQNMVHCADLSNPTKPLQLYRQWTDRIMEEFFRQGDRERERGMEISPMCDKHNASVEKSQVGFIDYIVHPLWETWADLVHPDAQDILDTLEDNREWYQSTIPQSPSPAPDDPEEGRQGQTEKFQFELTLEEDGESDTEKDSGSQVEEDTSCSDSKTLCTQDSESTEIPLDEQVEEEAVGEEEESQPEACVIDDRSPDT
T1 sequence (P62813 whole entry): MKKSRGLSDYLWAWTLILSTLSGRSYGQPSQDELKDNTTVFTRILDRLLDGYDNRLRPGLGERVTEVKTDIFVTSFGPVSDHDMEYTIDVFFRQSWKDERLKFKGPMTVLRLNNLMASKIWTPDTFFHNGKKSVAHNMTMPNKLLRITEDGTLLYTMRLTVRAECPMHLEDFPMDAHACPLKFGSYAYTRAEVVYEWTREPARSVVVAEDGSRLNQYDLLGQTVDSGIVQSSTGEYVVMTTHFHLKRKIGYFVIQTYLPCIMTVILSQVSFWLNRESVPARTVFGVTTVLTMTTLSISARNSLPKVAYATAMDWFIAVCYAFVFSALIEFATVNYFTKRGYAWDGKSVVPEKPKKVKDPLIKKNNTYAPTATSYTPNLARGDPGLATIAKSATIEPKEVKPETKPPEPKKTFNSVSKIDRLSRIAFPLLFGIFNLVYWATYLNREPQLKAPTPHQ
Sequence of Beta-1 adrenergic receptor (P08588 whole entry): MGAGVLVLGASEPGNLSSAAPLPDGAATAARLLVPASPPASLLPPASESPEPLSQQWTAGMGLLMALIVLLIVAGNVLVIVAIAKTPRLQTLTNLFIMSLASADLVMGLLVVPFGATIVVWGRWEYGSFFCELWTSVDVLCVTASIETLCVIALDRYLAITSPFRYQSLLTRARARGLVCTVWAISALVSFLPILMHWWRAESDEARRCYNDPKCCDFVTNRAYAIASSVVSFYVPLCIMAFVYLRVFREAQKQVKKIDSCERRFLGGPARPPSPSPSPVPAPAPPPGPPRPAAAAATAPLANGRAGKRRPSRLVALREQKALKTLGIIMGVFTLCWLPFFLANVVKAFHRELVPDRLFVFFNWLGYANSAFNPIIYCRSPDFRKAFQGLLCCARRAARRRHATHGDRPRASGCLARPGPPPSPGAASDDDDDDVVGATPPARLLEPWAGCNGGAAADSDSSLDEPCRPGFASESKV
Sequence of Voltage-gated inwardly rectifying potassium channel KCNH2 (Q12809 whole entry): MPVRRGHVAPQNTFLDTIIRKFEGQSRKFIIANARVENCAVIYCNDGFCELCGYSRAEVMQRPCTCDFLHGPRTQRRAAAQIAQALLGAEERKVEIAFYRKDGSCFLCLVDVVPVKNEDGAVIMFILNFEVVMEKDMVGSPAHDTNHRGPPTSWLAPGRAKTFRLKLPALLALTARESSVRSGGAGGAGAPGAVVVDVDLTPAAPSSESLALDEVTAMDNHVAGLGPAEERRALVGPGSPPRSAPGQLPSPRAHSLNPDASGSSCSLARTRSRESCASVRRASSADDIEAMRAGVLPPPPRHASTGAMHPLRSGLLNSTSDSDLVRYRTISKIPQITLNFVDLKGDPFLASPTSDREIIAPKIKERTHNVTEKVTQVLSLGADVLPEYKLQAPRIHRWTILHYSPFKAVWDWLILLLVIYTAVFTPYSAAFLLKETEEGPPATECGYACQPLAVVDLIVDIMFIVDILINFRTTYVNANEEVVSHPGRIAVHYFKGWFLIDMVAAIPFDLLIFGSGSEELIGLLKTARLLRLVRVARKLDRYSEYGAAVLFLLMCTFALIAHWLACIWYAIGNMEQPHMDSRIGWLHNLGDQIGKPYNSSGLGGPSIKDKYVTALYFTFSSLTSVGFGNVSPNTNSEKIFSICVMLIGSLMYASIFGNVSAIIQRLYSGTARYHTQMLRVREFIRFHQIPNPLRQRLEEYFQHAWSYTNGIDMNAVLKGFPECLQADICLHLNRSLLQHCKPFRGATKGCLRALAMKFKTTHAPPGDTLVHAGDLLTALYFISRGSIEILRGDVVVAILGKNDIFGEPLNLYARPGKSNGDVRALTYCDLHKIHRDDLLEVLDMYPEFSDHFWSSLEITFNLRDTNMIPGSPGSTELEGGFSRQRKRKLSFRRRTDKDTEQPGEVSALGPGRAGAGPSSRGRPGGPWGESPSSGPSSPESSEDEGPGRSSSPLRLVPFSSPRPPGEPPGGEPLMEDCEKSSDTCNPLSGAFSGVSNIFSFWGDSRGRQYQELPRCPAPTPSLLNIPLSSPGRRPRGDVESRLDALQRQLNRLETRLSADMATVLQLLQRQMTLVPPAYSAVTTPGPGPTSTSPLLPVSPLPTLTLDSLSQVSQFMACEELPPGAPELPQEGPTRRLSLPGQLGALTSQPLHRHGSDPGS
Sequence of Sodium-dependent dopamine transporter (Q01959 whole entry): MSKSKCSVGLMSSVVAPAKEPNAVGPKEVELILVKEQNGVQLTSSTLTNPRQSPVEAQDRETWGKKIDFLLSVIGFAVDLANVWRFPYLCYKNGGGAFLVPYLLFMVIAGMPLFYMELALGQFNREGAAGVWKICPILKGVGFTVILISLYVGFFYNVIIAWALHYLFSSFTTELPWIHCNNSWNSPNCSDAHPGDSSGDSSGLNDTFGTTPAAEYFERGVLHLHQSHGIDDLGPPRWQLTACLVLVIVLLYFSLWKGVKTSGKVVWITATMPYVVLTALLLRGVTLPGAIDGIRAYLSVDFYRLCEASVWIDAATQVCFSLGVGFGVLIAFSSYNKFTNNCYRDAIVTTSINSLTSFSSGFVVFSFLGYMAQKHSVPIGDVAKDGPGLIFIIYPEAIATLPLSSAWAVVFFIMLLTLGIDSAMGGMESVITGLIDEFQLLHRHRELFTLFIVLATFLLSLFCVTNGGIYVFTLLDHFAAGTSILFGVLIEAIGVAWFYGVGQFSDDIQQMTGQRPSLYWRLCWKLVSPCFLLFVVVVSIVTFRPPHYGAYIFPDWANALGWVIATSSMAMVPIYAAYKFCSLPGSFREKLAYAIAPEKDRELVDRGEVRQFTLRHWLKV
Sequence of Beta-2 adrenergic receptor (P07550 whole entry): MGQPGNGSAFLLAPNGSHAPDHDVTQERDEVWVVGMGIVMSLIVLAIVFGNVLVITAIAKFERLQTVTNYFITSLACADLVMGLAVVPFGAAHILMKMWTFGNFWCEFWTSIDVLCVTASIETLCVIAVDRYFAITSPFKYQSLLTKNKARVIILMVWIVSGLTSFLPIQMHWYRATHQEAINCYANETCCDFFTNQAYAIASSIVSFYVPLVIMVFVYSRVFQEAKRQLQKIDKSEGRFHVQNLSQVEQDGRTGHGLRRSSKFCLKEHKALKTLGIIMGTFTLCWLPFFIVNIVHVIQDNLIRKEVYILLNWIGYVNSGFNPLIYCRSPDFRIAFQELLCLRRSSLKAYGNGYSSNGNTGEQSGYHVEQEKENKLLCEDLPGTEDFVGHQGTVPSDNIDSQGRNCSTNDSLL
Sequence of Histamine H3 receptor (Q9Y5N1 whole entry): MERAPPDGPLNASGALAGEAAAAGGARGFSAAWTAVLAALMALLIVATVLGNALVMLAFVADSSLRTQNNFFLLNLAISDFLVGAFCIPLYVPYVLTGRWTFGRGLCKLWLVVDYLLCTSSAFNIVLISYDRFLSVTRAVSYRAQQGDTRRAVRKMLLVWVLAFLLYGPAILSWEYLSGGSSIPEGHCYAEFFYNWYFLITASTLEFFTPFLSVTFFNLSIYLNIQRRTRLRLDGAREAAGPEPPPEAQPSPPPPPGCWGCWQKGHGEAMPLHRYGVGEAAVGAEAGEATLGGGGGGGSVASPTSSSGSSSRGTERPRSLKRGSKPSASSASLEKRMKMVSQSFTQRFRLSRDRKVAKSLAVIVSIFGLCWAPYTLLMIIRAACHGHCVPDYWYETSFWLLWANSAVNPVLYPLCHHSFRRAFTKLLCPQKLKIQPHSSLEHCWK

| Structure (SMILES) | AC50 (Histamine H2 receptor) | AC50 [1] | AC50 [2] | AC50 [3] | AC50 [4] | AC50 [5] | AC50 [6] | AC50 [7] | AC50 [8] | AC50 [9] | AC50 (Adenosine receptor A1) | AC50 (Vasopressin V1a receptor) | AC50 (Histamine H3 receptor) | AC50 [10] |
| --- | --- | --- | --- | --- | --- | --- | --- | --- | --- | --- | --- | --- | --- | --- |
| Oc1cc(O)c(Cl)cn1 | > 30 µM | > 30 µM | > 30 µM | > 30 µM | > 30 µM | > 30 µM | > 30 µM | > 30 µM | > 30 µM | > 30 µM | > 30 µM | > 30 µM | > 30 µM | > 30 µM |
| CC(C)N(CCCCOCC(=O)O)c1cnc(-c2ccccc2)c(-c2ccccc2)n1 | > 30 µM | > 30 µM | > 30 µM | > 30 µM | > 30 µM | 14.3 µM | > 30 µM | > 10 µM | > 30 µM | > 30 µM | > 30 µM | > 30 µM | > 30 µM | > 30 µM |
| C[N+]12CCC(CC1)C(OC(=O)C(O)(c1ccccc1)c1ccccc1)C2 (stereo unspecified) | > 30 µM | > 30 µM | > 30 µM | > 30 µM | 1.3 µM | > 30 µM |  | > 30 µM | > 30 µM | > 30 µM | > 30 µM | > 30 µM | > 30 µM | > 30 µM |
| COc1cc(C)c(/C=C/C(C)=C/C=C/C(C)=C/C(=O)O)c(C)c1C [ACITRETIN] | > 10 µM | > 10 µM | > 10 µM | > 10 µM | > 30 µM | > 30 µM | > 10 µM | > 10 µM | > 10 µM | > 10 µM | > 10 µM | > 10 µM | > 10 µM | > 30 µM |
| O=C(O)CCNC(=O)c1ccc(/N=N/c2ccc(O)c(C(=O)O)c2)cc1 [BALSALAZIDE] | > 30 µM | > 30 µM | > 30 µM | > 30 µM | > 30 µM | > 30 µM | > 30 µM | > 30 µM | > 30 µM | > 30 µM | > 30 µM | 33.7 µM | 35.5 µM | 15 µM |
| O=C(CCCN1CCC(O)(c2ccc(Br)cc2)CC1)c1ccc(F)cc1 [BROMPERIDOL] | > 30 µM | > 30 µM | > 30 µM | > 30 µM | 0.23 µM | > 30 µM | > 30 µM | > 30 µM |  | > 30 µM | > 30 µM | > 30 µM | > 30 µM | > 30 µM |
| Clc1ccc(CCC(Cn2ccnc2)Sc2c(Cl)cccc2Cl)cc1 (stereo unspecified) [BUTOCONAZOLE] | > 30 µM | > 30 µM | > 30 µM | > 30 µM | 5.9 µM | 11 µM | > 30 µM | > 30 µM | 20 µM | > 30 µM | > 30 µM | > 30 µM | > 30 µM | > 30 µM |
| COc1cc(N)c(Cl)cc1C(=O)NC1CCN(CCCOc2ccc(F)cc2)CC1OC (stereo unspecified) [CISAPRIDE] | > 10 µM | > 10 µM | > 10 µM | > 10 µM |  | > 30 µM | > 10 µM | > 30 µM | > 30 µM | > 10 µM | > 30 µM | > 30 µM | > 10 µM | > 30 µM |
| CCOC(=O)C(C)(C)Oc1ccc(Cl)cc1 [CLOFIBRATE] | > 10 µM | > 10 µM | > 10 µM | > 10 µM | > 30 µM | > 30 µM | > 10 µM | > 30 µM | > 30 µM | > 10 µM | > 30 µM | > 30 µM | > 10 µM | > 30 µM |
| CCc1cc2c(s1)-n1c(C)nnc1CN=C2c1ccccc1Cl [ETIZOLAM] | > 30 µM | 0.0091 µM | > 30 µM | > 30 µM | > 30 µM | 19 µM |  | > 30 µM | > 30 µM | > 30 µM | > 30 µM | > 30 µM | > 30 µM | > 30 µM |
| CN1CCN=C(c2ccccc2)c2cc(Cl)ccc21 [MEDAZEPAM] | > 30 µM | 2.1 µM | > 30 µM | > 30 µM |  | 5.2 µM | > 30 µM | > 30 µM | 22 µM | > 30 µM | > 30 µM | > 30 µM | > 30 µM | > 30 µM |
| Fc1ccc([C@@H]2CCNC[C@H]2COc2ccc3c(c2)OCO3)cc1 [PAROXETINE] |  | > 10 µM | 9.5 µM | > 10 µM |  | > 30 µM | > 10 µM | > 30 µM |  | > 10 µM | > 30 µM | > 10 µM | > 10 µM | > 10 µM |
| CCOC(=O)c1ccc(C#Cc2ccc3c(c2)C(C)(C)CCS3)nc1 [TAZAROTENE] | > 30 µM | > 10 µM | > 10 µM | > 10 µM | > 30 µM | > 30 µM | > 10 µM | > 30 µM | > 30 µM | > 10 µM | > 30 µM |  | > 10 µM | > 30 µM |
| COc1cc(C(=O)NC2CCCNC2)cc(OC)c1OC (stereo unspecified) [TROXIPIDE] | > 30 µM | > 30 µM | > 30 µM | > 30 µM | > 30 µM | > 30 µM | > 30 µM | > 30 µM | > 30 µM | > 30 µM | > 30 µM |  | > 30 µM | > 30 µM |
| CC(C(=O)O)c1ccc2c(c1)CC(=O)c1ccccc1S2 (stereo unspecified) [ZALTOPROFEN] | > 30 µM | > 30 µM | > 30 µM |  | > 30 µM | 24 µM |  | > 30 µM | > 30 µM | > 30 µM | > 30 µM | > 30 µM | > 30 µM | > 30 µM |
| CC(c1cc2ccccc2s1)N(O)C(N)=O (stereo unspecified) [ZILEUTON] | > 10 µM | > 10 µM | > 10 µM | > 10 µM | > 30 µM | > 30 µM | > 10 µM | > 10 µM | > 10 µM | > 10 µM | > 10 µM |  | > 10 µM | > 30 µM |
